{"source": "patent US9546201B2", "about": "“MUC-1 cytoplasmic domain peptides as inhibitors of cancer” (DANA-FARBER CANCER INSTITUTE, INC., priority 2008, dated 2017)", "key": {"MCF-7 cells": {"tested_on": "MCF-7 cells", "experiment": "Cell cycle distribution and necrosis by flow cytometry, MCF-7", "assay_type": "cell-based, human", "settings": "MCF-7, 5 μM, 3 and 4 d", "experimental": "FIGS. 3A-D. MUC1/CQC peptide induces S phase arrest and necrosis. ZR-75-1 (FIGS. 3A-B) and MCF-7 (FIGS. 3C-D) cells were treated with 5 μM MUC1/CQC or MUC1/AQA for 3 and 4 d. Cells were fixed and analyzed for cell cycle distribution by flow cytometry (FIGS. 3A and 3C). The percentage of cells in G1, S and G2/M phases is included in the panels. Cells were also stained with propidium iodide and analyzed by flow cytometry for necrosis (FIGS. 3B and 3D). The percentage of necrotic cells is included in the panels.\nCells were harvested, washed with PBS, fixed with 80% ethanol, and incubated in PBS containing 40 μg/ml RNAse and 40 μg/ml propidium iodide for 30 min at 37° C. Cell cycle distribution was determined by flow cytometry. Sub-G1 DNA content was assessed by staining ethanol-fixed and citrate buffer-permeabilized cells with propidium iodide and monitoring by flow cytometry as described (Yin et al., 2007). For assessment of necrosis, cells were incubated with 1 μg/ml propidium iodide/PBS for 5 min at room temperature and then monitored by flow cytometry as described (Yin et al., 2007).\nTo determine whether the MUC1/CQC peptide affects growth, ZR-75-1 cells were treated with 5 μM MUC1/CQC for 72 h and monitored for cell cycle distribution. […] These findings indicate that the MUC1/CQC peptide inhibits growth and induces necrosis of human breast cancer cells."}, "ZR-75-1/MUC1siRNA cells": {"tested_on": "ZR-75-1/MUC1siRNA cells", "experiment": "Viable cell number by trypan blue exclusion, ZR-75-1/MUC1siRNA", "assay_type": "cell-based, human", "settings": "5 μM; MUC1 silenced", "experimental": "(§1) FIGS. 4A-E. Selectivity of MUC1/CQC for MUC1 expressing breast cancer cells. (FIG. 4A) ZR-75-1 cells were stably infected with an empty lentivirus (vector) or one expressing a MUC1 siRNA. Lysates for the infected cells were immunoblotted with the indicated antibodies. (FIG. 4B) ZR-75-1/vector cells were left untreated (diamonds), and ZR-75-1/vector (squares) and ZR-75-1/MUC1siRNA (triangles) cells were treated with 5 μM MUC1/CQC peptide for the indicated times. Viable cell number was determined by trypan blue exclusion. (FIG. 4C) 293 cells were left untreated (diamonds), and treated with 5 μM MUC1/CQC (squares) or MUC1/AQA (triangles) for the indicated times. Viable cell number was determined by trypan blue exclusion. (FIG. 4D) MCF-10A cells were left untreated (left panel), and treated with 5 μM MUC1/CQC (middle panel) or MUC1/AQA (right panel). At 3 d, cells were analyzed for cell cycle distribution. […] Viable cell number was determined by trypan blue exclusion.\n(§2) Human breast cancer ZR-75-1, ZR-75-1/vector, ZR-75-1/MUC1siRNA (Ren et al., 2004) cell lines were grown in RPMI1640 medium supplemented with 10% heat-inactivated fetal bovine serum (HI-FBS), 100 U/ml penicillin, and 100 μg/ml streptomycin (Invitrogen) in a humidified incubator at 37° C. and 5% CO2. […] Viability was determined by trypan blue exclusion. […]"}, "MUC1-negative 293 cells": {"tested_on": "MUC1-negative 293 cells", "experiment": "Viable cell number by trypan blue exclusion, 293 cells", "assay_type": "cell-based", "settings": "5 μM", "experimental": "as §1, §2"}, "[1]": {"experiment": "Body weight of nude mice under peptide administration", "assay_type": "in vivo"}, "[2]": {"tested_on": "multiple carcinoma cell lines", "experiment": "Inventors' recent studies of MUC1 C-terminal peptides on carcinoma cell lines", "assay_type": "cell-based", "settings": "L-amino acid peptide", "excerpt": "However, these MUC1-C-terminal peptides consists of L-amino acids. […] Consequently, they have generated an all-dextro form of the above described shorter MUC1 C-terminal peptide, in which the L-amino acids were changed to D-amino acids (GO-203). Moreover, to determine the minimum amino acid residues from the MUC1-C-terminal region that are required to retain the cell killing activity, they have also generated many different versions of GO-203 as described in FIG. 8."}}, "note": "“Also recorded” adds a separate entry of the source. Where a SMILES comes first, the peptide text is derived from it. [ ]: non-standard residue; d: D form.", "data": [{"smiles": "CC[C@H](C)[C@H](NC(=O)[C@H](CC(=O)O)NC(=O)[C@H](CC(C)C)NC(=O)[C@H](CCC(N)=O)NC(=O)CNC(=O)[C@H](Cc1ccc(O)cc1)NC(=O)[C@H](CC(N)=O)NC(=O)[C@H](CCCCN)NC(=O)[C@H](CCCNC(=N)N)NC(=O)[C@H](CCCNC(=N)N)NC(=O)[C@H](CS)NC(=O)[C@H](CCC(N)=O)NC(=O)[C@H](CS)NC(=O)[C@@H](CCCNC(=N)N)NC(=O)[C@@H](CCCNC(=N)N)NC(=O)[C@@H](CCCNC(=N)N)NC(=O)[C@@H](CCCNC(=N)N)NC(=O)[C@@H](CCCNC(=N)N)NC(=O)[C@@H](CCCNC(=N)N)NC(=O)[C@@H](CCCNC(=N)N)NC(=O)[C@@H](CCCNC(=N)N)NC(=O)[C@H](N)CCCNC(=N)N)C(=O)N[C@@H](Cc1ccccc1)C(=O)N1CCC[C@H]1C(=O)O", "note": "[MUC1/CQC] (H-[dR][dR][dR][dR][dR][dR][dR][dR][dR]CQCRRKNYGQLDIFP-OH; N-terminus and C-terminus assumed)", "values": [{"measurement": "cell cycle distribution", "setting": "MCF-7 cells", "value": "arrest of growth in S phase"}, {"measurement": "necrosis", "setting": "MCF-7 cells", "value": "induction of necrosis"}, {"measurement": "effect on growth (viable cell number)", "setting": "ZR-75-1/MUC1siRNA cells", "value": "substantially less effect; also recorded: abrogated the MUC1/CQC cytotoxic effects"}, {"measurement": "effect on growth", "setting": "MUC1-negative 293 cells", "value": "no apparent effect"}, {"measurement": "effect on weight of the individual mice", "setting": "[1]; 50 mg/kg IP once each day over 11 d, female nude mice", "value": "no apparent effect"}, {"measurement": "effect on bodyweight after stopping administration", "setting": "[1]; next 28 d after 50 mg/kg IP daily for 11 d, data not shown", "value": "no subsequent effect on bodyweight"}, {"measurement": "growth of carcinoma cell lines", "setting": "[2]", "value": "active in inhibiting growth of multiple carcinoma cell lines"}]}]}
